Reference: publication PMC9403029, “Identifying Novel Drug Targets by iDTPnd: A Case Study of Kinase Inhibitors” (Genomics, Proteomics & Bioinformatics, 2021)

Experiments:
CYP2E1 = test system: CYP2E1; design: method as in earlier work; details: FDA Orange Books ref 65, 66; cited from earlier work
CYP2A6 = test system: CYP2A6; design: method as in earlier work; details: FDA Orange Books ref 65, 66; cited from earlier work
CYP1A2 = test system: CYP1A2; design: method as in earlier work; details: FDA Orange Books ref 65, 66; cited from earlier work
ERα = target: T1, ERα (Homo sapiens, UniProt P03372); details: MST
T1 sequence (P03372 1-595): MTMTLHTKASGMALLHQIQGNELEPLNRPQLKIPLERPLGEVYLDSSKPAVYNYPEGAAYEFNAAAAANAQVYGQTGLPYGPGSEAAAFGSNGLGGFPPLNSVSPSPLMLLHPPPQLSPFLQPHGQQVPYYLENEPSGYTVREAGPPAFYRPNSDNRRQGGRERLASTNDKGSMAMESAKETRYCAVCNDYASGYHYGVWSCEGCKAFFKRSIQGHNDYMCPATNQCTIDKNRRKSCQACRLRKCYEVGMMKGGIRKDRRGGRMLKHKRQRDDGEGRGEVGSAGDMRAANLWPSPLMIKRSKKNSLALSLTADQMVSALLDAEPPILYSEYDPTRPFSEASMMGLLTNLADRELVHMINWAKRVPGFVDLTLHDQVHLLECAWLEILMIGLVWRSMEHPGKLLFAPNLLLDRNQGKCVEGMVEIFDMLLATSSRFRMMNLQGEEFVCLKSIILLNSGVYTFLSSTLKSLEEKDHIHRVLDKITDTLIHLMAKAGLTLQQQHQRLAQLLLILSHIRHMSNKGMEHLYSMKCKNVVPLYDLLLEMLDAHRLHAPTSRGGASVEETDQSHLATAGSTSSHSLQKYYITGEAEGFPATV

In the case of `Cc1nc(Nc2ncc(C(=O)Nc3c(C)cccc3Cl)s2)cc(N2CCN(CCO)CC2)n1` [Dasatinib, dasatinib], the IC50 (CYP2E1) is given as over 50 µM and the IC50 (CYP2A6) is given as 35 µM.
For `Cc1ccc(Nc2nccc(N(C)c3ccc4c(C)n(C)nc4c3)n2)cc1S(N)(=O)=O` [Pazopanib, pazopanib], the IC50 (CYP1A2) is given as 16 µM.
In the case of `CNC(=O)c1cc(Oc2ccc(NC(=O)Nc3ccc(Cl)c(C(F)(F)F)c3)cc2)ccn1` [Sorafenib, sorafenib], the “interaction with ERα at detectable levels” value (ERα) is reported as “did not interact”.
